Structures can show the parent of a compound that is named as a salt.
Experiment: in vitro
Settings: rat, gh3-tre-luc cells, AC50 (uM) modified / 1000

SMILES | CC50 at 24 h
O=C(CCCN1CCC(O)(c2ccc(Br)cc2)CC1)c1ccc(F)cc1 [Bromperidol] | > 20 µM
CC(=O)CCC1=C(C)CCCC1(C)C [Dihydro-beta-ionone] | > 90 µM
CC(C)(N=C=O)c1cccc(C(C)(C)N=C=O)c1 [1,3-Bis(2-isocyanato-2-propyl)benzene] | 78.6 µM
C=C[C@H]1C[N@@]2CC[C@H]1C[C@@H]2[C@@H](O)c1ccnc2ccccc12 [Cinchonine] | > 50 µM
Cc1ncc(CO)c(CO)c1O [Pyridoxine] | > 50 µM
C=CC1=C(C(=O)O)N2C(=O)[C@@H](NC(=O)/C(=N\O)c3csc(N)n3)[C@H]2SC1 [Cefdinir] | > 50 µM
CCCCSCCCC [Dibutyl sulfide] | > 90 µM
CC1(C)OC(=O)NC1=O [Dimethadione] | > 90 µM
CCCCC(=O)O[C@H]1CC[C@H]2[C@@H]3CCc4cc(O)ccc4[C@H]3CC[C@]12C [Estradiol valerate] | 41.5 µM
CCCCCC(C=O)=Cc1ccccc1 [Pentylcinnamaldehyde] | > 90 µM
C[N+]1([O-])CCOCC1 [4-Methylmorpholine 4-oxide] | > 90 µM
OCC1CO1 (stereo not drawn) [Glycidol] | > 90 µM
CCN(Cc1cccc(S(=O)(=O)O)c1)c1ccc(C(=C2C=CC(=[N+](CC)Cc3cccc(S(=O)(=O)[O-])c3)C=C2)c2ccccc2)cc1 [FD&C Green No. 1] | > 70 µM
Brc1c(Br)c(Br)c(Br)c(Br)c1Br [Hexabromobenzene] | > 5 µM
CCc1cc(C2=C(C(=O)O)N(c3ccccc3C(F)(F)F)S(=O)(=O)c3ccccc32)cc2c1OCO2 [Fandosentan potassium salt] | 8.29 µM
C[C@]12CCC(=O)C=C1C=C[C@@H]1[C@@H]2CC[C@@]2(C)[C@H]1CC[C@@]2(O)CCC(=O)O [Canrenoate potassium] | > 20 µM
Cc1ccc(N(SC(F)(Cl)Cl)S(=O)(=O)N(C)C)cc1 [Tolylfluanid] | 3.13 µM
CC(=O)OC1CCCCC1C(C)(C)C (stereo not drawn) [2-tert-Butylcyclohexyl acetate] | > 90 µM
C=CCc1ccc(O)c(OC)c1 [Eugenol] | > 90 µM
CCCCC1=NC2(CCCC2)C(=O)N1Cc1ccc(-c2ccccc2-c2nnn[nH]2)cc1 [Irbesartan] | > 50 µM

SMILES | CC50 at 24 h
Nc1ccccc1O [2-Aminophenol] | 40.6 µM
CNS(=O)(=O)CCc1ccc2[nH]cc(C3CCN(C)CC3)c2c1 [Naratriptan hydrochloride] | > 50 µM
CC(=O)OCC(C)OC(C)=O (stereo not drawn) [Propylene glycol diacetate] | > 90 µM
CN(C)Cc1ccccc1O [2-((Dimethylamino)methyl)phenol] | > 90 µM
CO/N=C(\C(=O)N[C@@H]1C(=O)N2C(C(=O)O)=C(CSc3nc(C)c(CC(=O)O)s3)CS[C@H]12)c1csc(N)n1 [Cefodizime sodium] | > 50 µM
Cc1c(N)cccc1N [2,6-Toluenediamine] | > 90 µM
CN1[C@@H]2CC[C@H]1C[C@@H](OC(=O)c1cc(Cl)cc(Cl)c1)C2 [MDL 72222] | 35.2 µM
CC/C=C\C/C=C\C/C=C\CCCCCCCC(=O)OCC [Ethyl linolenate] | > 90 µM
NC(=O)c1cc[n+](CC2=C(C(=O)O)N3C(=O)[C@@H](NC(=O)[C@@H](c4ccccc4)S(=O)(=O)[O-])[C@H]3SC2)cc1 [Cefsulodin sodium] | > 20 µM
Cc1cc(CC(=O)O)c(C)n1-c1ccc(Cl)cc1 [Clopirac] | > 50 µM
C=C(C)C(=O)OCC(C)(C)COC(=O)C(=C)C [2,2-Dimethylpropane-1,3-diyl bis(2-methylprop-2-enoate)] | > 90 µM
ON=C1CCCC1 [Cyclopentanone oxime] | > 90 µM
CCNc1nc(NC(C)C(C)C)nc(SC)n1 (stereo not drawn) [Dimethametryn] | > 90 µM
Oc1c(I)cc(I)c2cccnc12 [Iodoquinol] | > 50 µM
Cn1c(=O)c2[nH]c(Br)nc2n(C)c1=O [8-Bromotheophylline] | > 50 µM
Cc1cc2nc3c(=O)[nH]c(=O)nc-3n(C[C@H](O)[C@H](O)[C@H](O)CO)c2cc1C [Riboflavin] | > 90 µM
NC(CCC(=O)O)C(=O)O (racemic) [DL-Glutamic acid monohydrate] | > 80 µM
COc1ccc2cc3[n+](cc2c1OC)CCc1cc2c(cc1-3)OCO2 [Berberine chloride] | 88.5 µM
CC1=CC[C@H](CC=O)C1(C)C [[(1R)-2,2,3-Trimethylcyclopent-3-en-1-yl]acetaldehyde] | > 90 µM
Cc1c(C(=O)NCCO)[n+]([O-])c2ccccc2[n+]1[O-] [Olaquindox] | > 50 µM

SMILES | CC50 at 24 h
C[C@@H]1C[C@H]2[C@@H]3C[C@H](F)C4=CC(=O)C=C[C@]4(C)[C@@]3(F)[C@@H](O)C[C@]2(C)[C@@]1(O)C(=O)COC(=O)C(C)(C)C [Flumethasone pivalate] | > 50 µM
Oc1ccc(CCNCCCCCCNCCc2ccccc2)cc1O [Dopexamine] | 37.1 µM
CC(=O)c1ccc2c(c1)CCCC2 [6-Acetyl-1,2,3,4-tetrahydronaphthalene] | > 90 µM
C=C(C)C(=O)OCc1ccccc1 [Benzyl methacrylate] | > 90 µM
C[C@]12CCC(=O)C=C1CC[C@@H]1[C@@H]2CC[C@@]2(C)[C@H]1CC[C@]2(O)C(=O)CO [Cortodoxone] | > 50 µM
CNC(=O)Oc1cccc(C(C)C)c1 [m-Cumenyl methylcarbamate] | > 90 µM
Cc1cc2c3c(c1)C(c1ccccc1)=N[C@@H](NC(=O)c1ccncc1)C(=O)N3CC2 [CI-1018] | > 90 µM
CN(C)CCCN1c2ccccc2Sc2ccc(C(F)(F)F)cc21 [Triflupromazine hydrochloride] | 9.02 µM
NC(=O)c1cc[n+](CC2=C(C(=O)[O-])N3C(=O)[C@@H](NC(=O)Cc4cccs4)[C@H]3SC2)cc1 [Cefalonium] | > 20 µM
COc1cc(OC)nc(NC(=O)NS(=O)(=O)c2ncccc2C(=O)N(C)C)n1 [Nicosulfuron] | > 90 µM
NC(=O)COCCN1CCN(C(c2ccccc2)c2ccc(Cl)cc2)CC1 (stereo not drawn) [Cetirizine amide dihydrochloride] | 21.7 µM
CN1C(=O)COc2c(C(=O)NC3CN4CCC3CC4)cc(Cl)cc21 (stereo not drawn) [Azasetron] | 42.1 µM
CCCc1nn(C)c2c(=O)[nH]c(-c3cc(S(=O)(=O)N4CCN(C)CC4)ccc3OCC)nc12 [Sildenafil citrate] | > 50 µM
COc1ccc(CN(CCN(C)C)c2ncccn2)cc1 [Thonzylamine hydrochloride] | > 50 µM
CCOC(=O)c1ccccc1OC [Ethyl 2-methoxybenzoate] | > 90 µM
C=CCN1CCc2nc(N)sc2CC1 [Talipexole] | > 50 µM
Cc1cc(C)c(S(=O)(=O)O)cc1N=Nc1cc(S(=O)(=O)O)c2ccccc2c1O [FD&C Red 4] | 33.6 µM
COC(=O)C1=C(C)NC(C)=C(C(=O)O[C@H]2CCN(Cc3ccccc3)C2)[C@H]1c1cccc([N+](=O)[O-])c1 [Barnidipine hydrochloride] | 16.3 µM
CN(C)CCN(Cc1ccc(Cl)cc1)c1ccccn1 [Chloropyramine hydrochloride] | 10.2 µM
CC(C)OCC1CO1 (stereo not drawn) [Isopropyl glycidyl ether] | > 90 µM

Same assay, conditions: rat, gh3-tre-luc cells, AC50 (uM) modified / 1000, Tox21_110001=Tox21_111072; viability, 1 nM T3 present, 24 h

SMILES | CC50 at 24 h
CCCCCl [1-Chlorobutane] | > 50 µM

Same assay, conditions: rat, gh3-tre-luc cells, AC50 (uM) modified / 1000, Tox21_110001=Tox21_112083; viability, 1 nM T3 present, 24 h

SMILES | CC50 at 24 h
O=c1[nH]c(=O)n(Cl)c(=O)n1Cl [Sodium dichloroisocyanurate] | > 50 µM

Same assay, conditions: rat, gh3-tre-luc cells, AC50 (uM) modified / 1000, Tox21_110001=Tox21_112659; viability, 1 nM T3 present, 24 h

SMILES | CC50 at 24 h
COC1CC(=C(c2cccs2)c2cccs2)C[N+](C)(C)C1 (stereo not drawn) [Timepidium bromide] | > 50 µM

Same assay, conditions: rat, gh3-tre-luc cells, AC50 (uM) modified / 1000, Tox21_110001=Tox21_112862; viability, 1 nM T3 present, 24 h

SMILES | CC50 at 24 h
Oc1ccc2c3c1O[C@H]1[C@@H](O)C=C[C@H]4[C@@H](C2)NCC[C@@]341 [N-Normorphine hydrochloride] | > 100 µM

Same assay, conditions: rat, gh3-tre-luc cells, AC50 (uM) modified / 1000, Tox21_110001=Tox21_200152; viability, 1 nM T3 present, 24 h

SMILES | CC50 at 24 h
CCOC(=O)CBr [Ethyl bromoacetate] | > 90 µM

Same assay, conditions: rat, gh3-tre-luc cells, AC50 (uM) modified / 1000, Tox21_110001=Tox21_200336; viability, 1 nM T3 present, 24 h

SMILES | CC50 at 24 h
CC(C)(Cl)[N+](=O)[O-] [2-Chloro-2-nitropropane] | > 90 µM

Same assay, conditions: rat, gh3-tre-luc cells, AC50 (uM) modified / 1000, Tox21_110001=Tox21_200804; viability, 1 nM T3 present, 24 h

SMILES | CC50 at 24 h
N#CC(O)c1ccccc1 (stereo not drawn) [alpha-Hydroxybenzeneacetonitrile] | > 90 µM

Same assay, conditions: rat, gh3-tre-luc cells, AC50 (uM) modified / 1000, Tox21_110001=Tox21_200865; viability, 1 nM T3 present, 24 h

SMILES | CC50 at 24 h
CCCCCl [1-Chlorobutane] | > 90 µM

Same assay, conditions: rat, gh3-tre-luc cells, AC50 (uM) modified / 1000, Tox21_110001=Tox21_201601; viability, 1 nM T3 present, 24 h

SMILES | CC50 at 24 h
O=c1[nH]c(=O)n(Cl)c(=O)n1Cl [Sodium dichloroisocyanurate] | > 90 µM

Same assay, conditions: rat, gh3-tre-luc cells, AC50 (uM) modified / 1000, Tox21_110001=Tox21_201756; viability, 1 nM T3 present, 24 h

SMILES | CC50 at 24 h
CCOP(=S)(OCC)OP(=S)(OCC)OCC [Sulfotepp] | > 90 µM

Same assay, conditions: rat, gh3-tre-luc cells, AC50 (uM) modified / 1000, Tox21_110001=Tox21_202336; viability, 1 nM T3 present, 24 h

SMILES | CC50 at 24 h
CCCCN(CCCC)SN(C)C(=O)Oc1cccc2c1OC(C)(C)C2 [Carbosulfan] | > 90 µM

Same assay, conditions: rat, gh3-tre-luc cells, AC50 (uM) modified / 1000, Tox21_110001=Tox21_202368; viability, 1 nM T3 present, 24 h

SMILES | CC50 at 24 h
O=Cc1cccc(Oc2ccccc2)c1 [3-Phenoxybenzaldehyde] | > 90 µM

Same assay, conditions: rat, gh3-tre-luc cells, AC50 (uM) modified / 1000, Tox21_110001=Tox21_202383; viability, 1 nM T3 present, 24 h

SMILES | CC50 at 24 h
CCOP(=S)(OCC)Oc1nc(Cl)c(Cl)cc1Cl [Chlorpyrifos] | 53.7 µM

Same assay, conditions: rat, gh3-tre-luc cells, AC50 (uM) modified / 1000, Tox21_110001=Tox21_300148; viability, 1 nM T3 present, 24 h

SMILES | CC50 at 24 h
CCOP(=S)(OCC)Oc1nc(Cl)c(Cl)cc1Cl [Chlorpyrifos] | 81.6 µM

Same assay, conditions: rat, gh3-tre-luc cells, AC50 (uM) modified / 1000, Tox21_110001=Tox21_300473; viability, 1 nM T3 present, 24 h

SMILES | CC50 at 24 h
CCCCN(CCCC)SN(C)C(=O)Oc1cccc2c1OC(C)(C)C2 [Carbosulfan] | 24.2 µM
